Key:
[1] = system: Glycoprotein Nonmetastatic Melanoma Protein B (GPNMB); assay: SOMAscan aptamer-based proteomics of plasma from patients dosed with apilimod (NCT02594384); format: in vivo, human; details: pre-dose vs day 15 after 14 days of dosing, FDR<0.05
Text: A SOMAscan™ platform was used to identify analytes that were changed in the plasma of patients upon apilimod dosing. SOMAscan™ is an aptamer-based proteomics assay from SomaLogic capable of measuring 1,305 human protein analytes in serum or plasma with high sensitivity and specificity. Plasma from patients enrolled in the clinical trial designated NCT02594384 was collected pre-dose (before the first administration of apilimod) and after 14 days of dosing with apilimod, on day 15. Using differential protein analysis with a paired experimental design for linear models of microarray data using the “Limma R” software package described by Ritchie et al. in Nucleic Acids Research, 43(7), pp. e47 (2015).

[2] = Body weight (percent baseline) in TDP-43 (rNLS8) mouse model of ALS; format: in vivo; details: Group B (60 mg/kg p.o. BID) vs vehicle Group A
Method: (§1) For the evaluation, all mice received either apilimod dimesylate (60 mg/kg)) or vehicle two times daily for 24 days, starting at […] of age, 3 days prior to disease initiation. Both groups had routine clinical assessments 3 times per week. Twenty-four (24) total mice were assigned to one of two groups, as outlined in Table 1. […]
(§2) Animals were weighed at the beginning of the experiment, and then, for dosing, daily for the duration of the study. Animals were also monitored daily, and clinical assessments were performed three times per week (Mondays, Wednesday, and Fridays) from disease initiation to the end of the study. Each clinical assessment day, animals were assessed for signs of motor dysfunction, including signs of tremor, hindlimb clasping, hindlimb paralysis, grill agility, and overall well-being. Each of these signs were scored on a scale of 0-3: normal/no dysfunction (0), mild (1), moderate (2), or severe (3), as summarized in Table 2. […]
(§3) All summary statistics are presented as mean and standard deviation. […] The data were first assessed for normality with a normal probability plot, followed by assessment of homogeneity of variance, if appropriate. […]

[3] = system: TDP-43 (rNLS8) mouse model of ALS; assay: Clinical assessment of motor dysfunction in TDP-43 (rNLS8) mouse model of ALS; format: in vivo; details: body weight and clinical scores taken together
Method: as §1, §2, §3
Progression of clinical scores (also herein “severity score”) throughout the study, following removal of Full DOX was evaluated. […]

[4] = Observation of adverse effects of treatment in rNLS8 mice; format: in vivo, mouse; details: 60 mg/kg p.o. BID for 24 days
Method: For the evaluation, all mice received either apilimod dimesylate (60 mg/kg)) or vehicle two times daily for 24 days, starting at […] of age, 3 days prior to disease initiation. Both groups had routine clinical assessments 3 times per week. Twenty-four (24) total mice were assigned to one of two groups, as outlined in Table 1.
Animals were weighed at the beginning of the experiment, and then, for dosing, daily for the duration of the study. Animals were also monitored daily, and clinical assessments were performed three times per week (Mondays, Wednesday, and Fridays) from disease initiation to the end of the study. Each clinical assessment day, animals were assessed for signs of motor dysfunction, including signs of tremor, hindlimb clasping, hindlimb paralysis, grill agility, and overall well-being. Each of these signs were scored on a scale of 0-3: normal/no dysfunction (0), mild (1), moderate (2), or severe (3), as summarized in Table 2.
Apilimod dimesylate was received at ambient temperature in a 50 mL tube and protected from light. The treatments were administered p.o. twice per day (BID) for a period of 24 days Each daily dose was performed within the same ˜2-hour time frame, with approximately 6 hours between doses.

## Cc1cccc(/C=N/Nc2cc(N3CCOCC3)nc(OCCc3ccccn3)n2)c1 [apilimod]
[1]
  average fold change of plasma (shed) GPNMB: 4 fold
[2]
  percent baseline body weight vs vehicle at every clinical assessment visit: tendency for higher percent baseline body weight
[3]
  functional deficits in TDP-43 ALS animal model: ameliorates functional deficits
[4]
  adverse effects of treatment: No adverse effects
